We go through 23 molecules from patent US9133148B2, “Carbamate compounds and of making and using same” (Abide Therapeutics, Inc., priority 2012, dated 2015).

Type in all cases: biochemical
Assay [1] has as its target MAGL (Mus musculus (Mouse), UniProt O35678). Put plainly: Competitive ABPP, % inhibition at 1 uM, MAGL. As to the method:
(§1) In Vitro Competitive Activity-Based Protein Profiling.
(§2) Proteomes (mouse brain membrane fraction or cell lysates) ([…], 1.0 mg/mL total protein concentration) were preincubated with varying concentrations of inhibitors at 37° C. After 30 min, FP-Rh (1.0 μL, 50 μM in DMSO) was added and the mixture was incubated for another 30 min at 37° C. Reactions were quenched with SDS loading buffer (50 μL—4×) and run on SDS-PAGE.

Assay [2] deals with FAAH (Mus musculus (Mouse), UniProt O08914). The experiment in a line: Competitive ABPP, % inhibition at 1 uM, FAAH. How it is done:
as §1
Proteomes (mouse brain membrane fraction or cell lysates) ([…], 1.0 mg/mL total protein concentration) were preincubated with varying concentrations of inhibitors at 37° C. After 30 min, FP-Rh (1.0 μL, 50 μM in DMSO) was added and the mixture was incubated for another 30 min at 37° C. Reactions were quenched with SDS loading buffer (50 μL—4×) and run on SDS-PAGE. Following gel imaging, serine hydrolase activity was determined by measuring fluorescent intensity of gel bands corresponding to MAGL, ABHD6 and FAAH using ImageJ 1.43u software.

Assay [3] concerns the target ABHD6 (Mus musculus (Mouse), UniProt Q8R2Y0). Put plainly: Competitive ABPP, % inhibition at 1 uM, ABHD6. As to the method:
as §1, §2

Sequence of FAAH (O08914 whole entry): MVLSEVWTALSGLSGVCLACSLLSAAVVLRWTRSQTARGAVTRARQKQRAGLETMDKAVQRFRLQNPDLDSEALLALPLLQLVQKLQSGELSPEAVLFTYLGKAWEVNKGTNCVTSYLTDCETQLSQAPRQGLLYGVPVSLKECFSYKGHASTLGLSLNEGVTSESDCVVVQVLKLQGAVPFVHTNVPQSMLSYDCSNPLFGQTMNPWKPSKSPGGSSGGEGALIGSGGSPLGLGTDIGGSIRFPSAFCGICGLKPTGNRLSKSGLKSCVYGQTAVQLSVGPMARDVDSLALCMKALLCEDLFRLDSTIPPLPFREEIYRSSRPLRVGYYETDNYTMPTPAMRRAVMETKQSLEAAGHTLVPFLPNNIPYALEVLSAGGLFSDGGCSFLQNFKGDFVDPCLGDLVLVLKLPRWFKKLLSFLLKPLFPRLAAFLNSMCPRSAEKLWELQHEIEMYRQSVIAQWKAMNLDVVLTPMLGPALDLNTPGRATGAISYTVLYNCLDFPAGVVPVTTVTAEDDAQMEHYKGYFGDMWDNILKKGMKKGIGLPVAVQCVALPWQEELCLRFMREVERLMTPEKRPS
Sequence of MAGL (O35678 whole entry): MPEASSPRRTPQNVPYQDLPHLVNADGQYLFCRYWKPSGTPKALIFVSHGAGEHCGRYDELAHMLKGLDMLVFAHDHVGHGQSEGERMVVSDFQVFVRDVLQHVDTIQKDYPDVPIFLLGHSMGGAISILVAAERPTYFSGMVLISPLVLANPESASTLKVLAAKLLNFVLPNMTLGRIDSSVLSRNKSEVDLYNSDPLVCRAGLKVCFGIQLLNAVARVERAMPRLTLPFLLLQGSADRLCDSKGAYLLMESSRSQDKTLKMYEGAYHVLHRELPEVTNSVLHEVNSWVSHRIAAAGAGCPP
Sequence of ABHD6 (Q8R2Y0 whole entry): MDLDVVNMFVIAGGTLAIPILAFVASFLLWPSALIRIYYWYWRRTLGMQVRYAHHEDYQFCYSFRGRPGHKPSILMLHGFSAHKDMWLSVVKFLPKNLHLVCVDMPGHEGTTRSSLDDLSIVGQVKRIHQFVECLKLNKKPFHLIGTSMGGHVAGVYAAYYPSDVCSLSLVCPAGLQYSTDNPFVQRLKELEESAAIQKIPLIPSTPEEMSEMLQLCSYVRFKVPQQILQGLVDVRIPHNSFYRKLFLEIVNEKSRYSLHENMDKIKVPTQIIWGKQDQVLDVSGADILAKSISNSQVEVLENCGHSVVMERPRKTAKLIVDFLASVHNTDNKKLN

In the case of `C[C@H]1CN(Cc2ccc(N3CCOCC3)cc2C(F)(F)F)CCN1C(=O)OC(C(F)(F)F)C(F)(F)F` [Example 9j, 1,1,1,3,3,3-hexafluoropropan-2-yl(2S)-2-methyl-4-[[4-(morpholin-4-yl)-2-(trifluoromethyl)phenyl]methyl]piperazine-1-carboxylate], the inhibition at 1 µM in assay [1] is 25 to 75%; in assay [2] it was less than 25%; in assay [3], 25 to 75%.

With `C[C@@H]1CN(Cc2ccc(N3CCOCC3)cc2F)CCN1C(=O)OC(C(F)(F)F)C(F)(F)F` [Example 9k, 1,1,1,3,3,3-hexafluoropropan-2-yl(2R)-4-[[2-fluoro-4-(morpholin-4-yl)phenyl]methyl]-2-methylpiperazine-1-carboxylate], the inhibition at 1 µM in assay [1], in assay [2] and in assay [3] was less than 25% throughout.

`C[C@@H]1CN(Cc2ccc(N3CCOCC3)cc2C(F)(F)F)CCN1C(=O)OC(C(F)(F)F)C(F)(F)F` [Example 9l, 1,1,1,3,3,3-hexafluoropropan-2-yl(2R)-2-methyl-4-[[4-(morpholin-4-yl)-2-(trifluoromethyl)phenyl]methyl]piperazine-1-carboxylate]: the inhibition at 1 µM in assay [1], in assay [2] and in assay [3] was less than 25% throughout.

Consider `O=C(OC(C(F)(F)F)C(F)(F)F)N1CCN(Cc2c(Cl)cccc2N2CCCC2)CC1` [Example 9m, 1,1,1,3,3,3-hexafluoropropan-2-yl 4-[[2-chloro-6-(pyrrolidin-1-yl)phenyl]methyl]piperazine-1-carboxylate], for which the figures for the inhibition at 1 µM in assay [1], in assay [2] and in assay [3] were 25 to 75%, less than 25% and 25 to 75%, respectively.

`COc1ccc(-c2cc(CN3CCN(C(=O)OC(C(F)(F)F)C(F)(F)F)CC3)no2)cc1` [Example 10a, 1,1,1,3,3,3-hexafluoropropan-2-yl 4-((5-(4-methoxyphenyl)isoxazol-3-yl)methyl)piperazine-1-carboxylate]: the values for the inhibition at 1 µM in assay [1], in assay [2] and in assay [3] were more than 75%, less than 25% and 25 to 75%, respectively.

As to `CC1CN(C(=O)OC(C(F)(F)F)C(F)(F)F)CCN1Cc1ccc(-c2ccccc2)cc1` (stereo not drawn) [Example 11a, 1,1,1,3,3,3-hexafluoropropan-2-yl 3-methyl-4-[(4-phenylphenyl)methyl]piperazine-1-carboxylate], the inhibition at 1 µM in assay [1] is 25 to 75%; in assay [2] it was less than 25%; in assay [3] it was 25 to 75%.

Turning to `Cc1cc(-c2ccc(CN3CCN(C(=O)OC(C(F)(F)F)C(F)(F)F)CC3)c(F)c2)cc(C)n1` [Example 11aa, 1,1,1,3,3,3-hexafluoropropan-2-yl 4-[[4-(2,6-dimethylpyridin-4-yl)-2-fluorophenyl]methyl]piperazine-1-carboxylate], the inhibition at 1 µM is more than 75% in assay [1], less than 25% in assay [2] and 25 to 75% in assay [3].

For the molecule `Cc1cnccc1-c1ccc(CN2CCN(C(=O)OC(C(F)(F)F)C(F)(F)F)CC2)c(F)c1` [Example 11ab, 1,1,1,3,3,3-hexafluoropropan-2-yl 4-[[2-fluoro-4-(3-methylpyridin-4-yl)phenyl]methyl]piperazine-1-carboxylate], the inhibition at 1 µM in assay [1] is more than 75%; in assay [2] it was less than 25%; in assay [3] it was 25 to 75%.

For `Cc1cccc(-c2ccc(CN3CCN(C(=O)OC(C(F)(F)F)C(F)(F)F)CC3)c(F)c2)n1` [Example 11ac, 1,1,1,3,3,3-hexafluoropropan-2-yl 4-[[2-fluoro-4-(6-methylpyridin-2-yl)phenyl]methyl]piperazine-1-carboxylate], the inhibition at 1 µM in assay [1] is more than 75%; in assay [2] it was less than 25%; in assay [3], 25 to 75%.

In the case of `Cc1cccc(-c2ccc(CN3CCN(C(=O)OC(C(F)(F)F)C(F)(F)F)CC3)nc2C)c1` [Example 11ad, 1,1,1,3,3,3-hexafluoropropan-2-yl 4-[[6-methyl-5-(3-methylphenyl)pyridin-2-yl]methyl]piperazine-1-carboxylate], the inhibition at 1 µM in assay [1] is more than 75%; in assay [2] it was less than 25%; in assay [3] it was 25 to 75%.

Turning to `Cc1ccccc1-c1ccc(CN2CCN(C(=O)OC(C(F)(F)F)C(F)(F)F)CC2)c(C)n1` [Example 11b, 1,1,1,3,3,3-hexafluoropropan-2-yl 4-[[2-methyl-6-(2-methylphenyl)pyridin-3-yl]methyl]piperazine-1-carboxylate], the inhibition at 1 µM in assay [1] is more than 75%; in assay [2], less than 25%; in assay [3], 25 to 75%.

On to `Cc1nc(-c2ccccc2F)ccc1CN1CCN(C(=O)OC(C(F)(F)F)C(F)(F)F)CC1` [Example 11c, 1,1,1,3,3,3-hexafluoropropan-2-yl 4-[[6-(2-fluorophenyl)-2-methylpyridin-3-yl]methyl]piperazine-1-carboxylate], for which the figures for the inhibition at 1 µM in assay [1], in assay [2] and in assay [3] were 25 to 75%, less than 25% and 25 to 75%, respectively.

`Cc1cccc(-c2ccc(CN3CCN(C(=O)OC(C(F)(F)F)C(F)(F)F)CC3)c(C)n2)c1` [Example 11d, 1,1,1,3,3,3-hexafluoropropan-2-yl 4-[[2-methyl-6-(3-methylphenyl)pyridin-3-yl]methyl]piperazine-1-carboxylate]: the inhibition at 1 µM in assay [1] is more than 75%; in assay [2] it was less than 25%; in assay [3] it was 25 to 75%.

Regarding `Cc1nc(-c2cccc(F)c2)ccc1CN1CCN(C(=O)OC(C(F)(F)F)C(F)(F)F)CC1` [Example 11e, 1,1,1,3,3,3-hexafluoropropan-2-yl 4-[[6-(3-fluorophenyl)-2-methylpyridin-3-yl]methyl]piperazine-1-carboxylate], the inhibition at 1 µM was more than 75% in assay [1], less than 25% in assay [2] and 25 to 75% in assay [3].

As for `Cc1cc(-c2ccc(CN3CCN(C(=O)OC(C(F)(F)F)C(F)(F)F)CC3)c(F)c2)ccn1` [Example 11g, 1,1,1,3,3,3-hexafluoropropan-2-yl 4-[[2-fluoro-4-(2-methylpyridin-4-yl)phenyl]methyl]piperazine-1-carboxylate], the inhibition at 1 µM was more than 75% in assay [1], less than 25% in assay [2] and more than 75% in assay [3].

As to `Cc1cccc(-c2ccc(CN3CCN(C(=O)OC(C(F)(F)F)C(F)(F)F)CC3)c(C)c2)c1` [Example 11h, 1,1,1,3,3,3-hexafluoropropan-2-yl 4-[[2-methyl-4-(3-methylphenyl)phenyl]methyl]piperazine-1-carboxylate], the inhibition at 1 µM in assay [1] is 25 to 75%; in assay [2] it was less than 25%; in assay [3], less than 25%.

As for `Cc1cc(-c2ccc(CN3CCN(C(=O)OC(C(F)(F)F)C(F)(F)F)CC3)c(C)c2)ccn1` [Example 11i, 1,1,1,3,3,3-hexafluoropropan-2-yl 4-[[2-methyl-4-(2-methylpyridin-4-yl)phenyl]methyl]piperazine-1-carboxylate], the inhibition at 1 µM in assay [1] was 25 to 75%; in assay [2], less than 25%; in assay [3], 25 to 75%.

As to `O=C(OC(C(F)(F)F)C(F)(F)F)N1CCN(Cc2ccc(-c3cccc(F)c3)cn2)CC1` [Example 11k, 1,1,1,3,3,3-hexafluoropropan-2-yl 4-[[5-(3-fluorophenyl)pyridin-2-yl]methyl]piperazine-1-carboxylate], the figures for the inhibition at 1 µM in assay [1], in assay [2] and in assay [3] were more than 75%, less than 25% and 25 to 75%, respectively.

Turning to `Cc1cc(-c2cccnc2)ccc1CN1CCN(C(=O)OC(C(F)(F)F)C(F)(F)F)CC1` [Example 11l, 1,1,1,3,3,3-hexafluoropropan-2-yl 4-[[2-methyl-4-(pyridin-3-yl)phenyl]methyl]piperazine-1-carboxylate], the inhibition at 1 µM in assay [1] was more than 75%; in assay [2] it was less than 25%; in assay [3], more than 75%.

For `Cc1cc(-c2ccc(CN3CCN(C(=O)OC(C(F)(F)F)C(F)(F)F)CC3)c(C)c2)cc(C)n1` [Example 11m, 1,1,1,3,3,3-hexafluoropropan-2-yl 4-[[4-(2,6-dimethylpyridin-4-yl)-2-methylphenyl]methyl]piperazine-1-carboxylate], the inhibition at 1 µM was 25 to 75% in assay [1], less than 25% in assay [2] and 25 to 75% in assay [3].

For `Cc1cc(-c2ccncc2C)ccc1CN1CCN(C(=O)OC(C(F)(F)F)C(F)(F)F)CC1` [Example 11n, 1,1,1,3,3,3-hexafluoropropan-2-yl 4-[[2-methyl-4-(3-methylpyridin-4-yl)phenyl]methyl]piperazine-1-carboxylate], the figures for the inhibition at 1 µM in assay [1], in assay [2] and in assay [3] were more than 75%, less than 25% and more than 75%, respectively.

For `O=C(OC(C(F)(F)F)C(F)(F)F)N1CCN(Cc2ccc(-c3cccc(F)c3)cc2F)CC1` [Example 11o, 1,1,1,3,3,3-hexafluoropropan-2-yl 4-[[2-fluoro-4-(3-fluorophenyl)phenyl]methyl]piperazine-1-carboxylate], the inhibition at 1 µM in assay [1] was more than 75%; in assay [2] it was less than 25%; in assay [3], 25 to 75%.

With `Cc1cccc(-c2ccc(CN3CCN(C(=O)OC(C(F)(F)F)C(F)(F)F)CC3)c(Oc3ccccc3)c2)c1` [Example 11r, 1,1,1,3,3,3-hexafluoropropan-2-yl 4-[[4-(3-methylphenyl)-2-phenoxyphenyl]methyl]piperazine-1-carboxylate], the values for the inhibition at 1 µM in assay [1], in assay [2] and in assay [3] were 25 to 75%, less than 25% and less than 25%, respectively.
